Source: PMC6736568, “Discovery of Novel Anti-cryptosporidial Activities From Natural Products by in vitro High-Throughput Phenotypic Screening” (Frontiers in Microbiology, 2019)
Where a name gives a salt, the structure may show the parent alone. Read-outs that look alike come from different tables or passages of the source.

How the values were obtained:
Cryptosporidium parvum = experiment: qRT-PCR assay of the growth of C. parvum in vitro in HCT-8 host cells (primary and secondary screening, EC50); assay type: cell-based; conditions: Cryptosporidium parvum, HCT-8; for inhibition at 3.3 µM: secondary screening at 3.3 uM, read-out: % Inhibition (3.3 uM)
[1] = primary screening at 10 uM, read-out: Inhibition (%)
[2] = primary screening at 10 uM, treated vs control

Structure (SMILES) | inhibition at 10 µM (Cryptosporidium parvum; [1]) [%] | Hs18S ΔCT (HCT-8 host cells (Hs18S); human, 41 h, 10 μM) | cytotoxicity at 41 h, 10 µM (in vitro; human) [%] | Hs18S ΔCT (HCT-8 host cells (Hs18S); [2]) | cytotoxicity at 10 µM (in vitro) [%] | inhibition at 3.3 µM (Cryptosporidium parvum) [%] | cytotoxicity at 41 h, 10 µM (in vitro) [%] | inhibition at 10 µM (Cryptosporidium parvum) [%] | Hs18S ΔCT (HCT-8 host cells (Hs18S))
OCC(O)C(O)C(O)C(O)C(O)CO (stereo not drawn) [PERSEITOL] | 11.3 | -0.23 | -17.1 | – | – | – | – | – | –
CC(C)=CCc1c(O)cc2oc(C)cc(=O)c2c1O [PEUCENIN] | 2.08 | -0.39 | -31.3 | – | – | – | – | – | –
NCC(=O)c1ccccc1 [PHENACYLAMINE HYDROCHLORIDE] | 9.11 | 1.22 | 57 | – | – | – | – | – | –
O=C(CCc1ccc(O)cc1)c1c(O)cc(O)cc1O [PHLORETIN] | -5.73 | -0.15 | -10.8 | – | – | – | – | – | –
O=C(CCc1ccc(O)cc1)c1c(O)cc(O)cc1O[C@@H]1O[C@H](CO)[C@@H](O)[C@H](O)[C@H]1O [PHLORIDZIN] | 28.9 | -0.08 | -5.8 | – | – | – | – | – | –
COc1cc(O)c2c(c1)C(=O)c1cc(C)cc(O)c1C2=O [PHYSCION] | -57.5 | – | – | 0.20 | 12.9 | – | – | – | –
CNC(=O)Oc1ccc2c(c1)[C@]1(C)CCN(C)[C@@H]1N2C [PHYSOSTIGMINE SALICYLATE] | -4.89 | – | – | -0.12 | -8.6 | – | – | – | –
OC[C@H]1O[C@@H](Oc2cc(O)cc(/C=C/c3ccc(O)cc3)c2)[C@H](O)[C@@H](O)[C@@H]1O [PICEID] | 4.1 | -0.36 | -28.7 | – | – | – | – | – | –
COc1cc([C@@H]2c3cc4c(cc3[C@H](O)[C@H]3COC(=O)[C@@H]23)OCO4)cc(OC)c1OC [PICROPODOPHYLLIN] | 79.4 | – | – | 0.94 | – | 56 | 47.8 | – | –
CC(C)(O)[C@@H]1[C@H]2OC(=O)[C@@H]1[C@]1(O)C[C@H]3O[C@]34C(=O)O[C@H]2[C@]14C [PICROTIN] | -1.94 | – | – | -0.20 | -14.8 | – | – | – | –
C=C(C)[C@@H]1[C@H]2OC(=O)[C@@H]1[C@]1(O)C[C@H]3O[C@]34C(=O)O[C@H]2[C@]14C [PICROTOXININ] | 23.1 | – | – | -0.81 | -75.3 | – | – | – | –
CC[C@@H]1C(=O)OC[C@@H]1Cc1cncn1C [PILOCARPINE NITRATE] | -30.2 | -0.10 | -7.3 | – | – | – | – | – | –
COc1c(OC)c2occc2c2oc(=O)ccc12 [PIMPINELLIN] | 43.6 | 0.21 | 13.3 | – | – | – | – | – | –
O=C(O)/C=C/C=C/c1ccc2c(c1)OCO2 [PIPERIC ACID] | 0.79 | – | – | -0.02 | -1.7 | – | – | – | –
O=C(/C=C/C=C/c1ccc2c(c1)OCO2)N1CCCCC1 [PIPERINE] | -12.1 | – | – | 0.03 | 2.1 | – | – | – | –
O=C(O)c1ccc2c(c1)OCO2 [PIPERONYLIC ACID] | 30.3 | – | – | -0.04 | -3.1 | – | – | – | –
COc1cc(/C=C/C(=O)N2CCC=CC2=O)cc(OC)c1OC [PIPLARTINE] | 73.7 | – | – | 0.33 | 20.5 | 10 | – | – | –
O=C(O)[C@@H](O)[C@](O)(Cc1ccc(O)cc1)C(=O)O [PISCIDIC ACID] | -5.12 | – | – | -0.03 | -1.7 | – | – | – | –
CC1=CC(=O)c2c(O)cccc2C1=O [PLUMBAGIN] | 95.1 | 1.26 | 58.1 | – | – | 13 | – | – | –
CC(C)=CCOc1cc2oc(=O)ccc2cc1O [PRENYLETIN] | -6.72 | -0.59 | -50 | – | – | – | – | – | –
COC(=O)[C@]1(C)CC[C@]2(C)CC[C@]3(C)C4=CC=C5C(=CC(=O)C(O)=C5C)[C@]4(C)CC[C@@]3(C)[C@@H]2C1 [PRISTIMERIN] | 94.7 | – | – | 0.55 | 31.6 | 30 | – | – | –
C=CC1=C(C)c2cc3[nH]c(cc4nc(cc5[nH]c(cc1n2)c(C)c5CCC(=O)O)C(CCC(=O)O)=C4C)c(C)c3C=C [PROTOPORPHYRIN IX] | -20.6 | 0.00 | -0.1 | – | – | – | – | – | –
CC1=CCc2c(cc3oc(C)cc(=O)c3c2O)OC1 [PTAEROXYLIN] | -20.7 | -0.13 | -9.7 | – | – | – | – | – | –
O=c1c(-c2ccc(O)cc2)coc2c([C@@H]3O[C@H](CO)[C@@H](O)[C@H](O)[C@H]3O)c(O)ccc12 [PUERARIN] | -23 | – | -37.4 | -0.46 | – | – | – | – | –
O=C1c2ccccc2C(=O)c2c(O)c(O)cc(O)c21 [PURPURIN] | -37.2 | – | -14.3 | -0.19 | – | – | – | – | –

Structure (SMILES) | inhibition at 10 µM (Cryptosporidium parvum; [1]) [%] | Hs18S ΔCT (HCT-8 host cells (Hs18S); human, 41 h, 10 μM) | cytotoxicity at 41 h, 10 µM (in vitro; human) [%] | Hs18S ΔCT (HCT-8 host cells (Hs18S); [2]) | cytotoxicity at 10 µM (in vitro) [%] | inhibition at 3.3 µM (Cryptosporidium parvum) [%] | cytotoxicity at 41 h, 10 µM (in vitro) [%] | inhibition at 10 µM (Cryptosporidium parvum) [%] | Hs18S ΔCT (HCT-8 host cells (Hs18S))
O=c1c(O)cccc2cc(O)c(O)c(O)c12 [PURPUROGALLIN] | -12.6 | -0.01 | -0.7 | – | – | – | – | – | –
NCCCCN [PUTRESCINE DIHYDROCHLORIDE] | – | – | – | – | -3 | – | – | 28.7 | -0.04
CC[C@@]1(O)C[C@H](O[C@H]2C[C@H](N(C)C)[C@H](O)[C@H](C)O2)c2c(cc3c(c2O)C(=O)c2c(O)ccc(O)c2C3=O)[C@H]1C(=O)OC [PYRROMYCIN] | -46.1 | – | – | 0.35 | 21.5 | – | – | – | –
COC1=C[C@@H](C)[C@@H]2C[C@H]3OC(=O)C[C@H]4C(C)=C(OC)C(=O)[C@H]([C@@]2(C)C1=O)[C@@]34C [QUASSIN] | 29.4 | 0.08 | 5.1 | – | – | – | – | – | –
CO[C@H]1[C@H](O)[C@@H](O)[C@H](O)[C@H](O)[C@H]1O [QUEBRACHITOL] | -39 | -0.16 | -11.4 | – | – | – | – | – | –
O=c1c(O)c(-c2ccc(O)c(O)c2)oc2cc(O)cc(O)c12 [QUERCETIN] | 78.4 | – | – | 0.34 | 21.1 | -27 | – | – | –
C[C@@H]1O[C@@H](Oc2c(-c3ccc(O)c(O)c3)oc3cc(O)cc(O)c3c2=O)[C@H](O)[C@H](O)[C@H]1O [QUERCITRIN] | 3.89 | – | – | -0.65 | -57.2 | – | – | – | –
O=C(O)[C@]1(O)C[C@@H](O)[C@@H](O)[C@H](O)C1 [QUINIC ACID] | 69.4 | 0.23 | 14.6 | – | – | -6 | – | – | –
C=C[C@H]1C[N@@]2CC[C@H]1C[C@@H]2[C@@H](O)c1ccnc2ccc(OC)cc12 [QUINIDINE GLUCONATE] | 11.2 | -0.03 | -2 | – | – | – | – | – | –
C=C[C@H]1C[N@@]2CC[C@H]1C[C@H]2[C@H](O)c1ccnc2ccc(OC)cc12 [QUININE SULFATE] | -15.4 | -0.12 | -8.7 | – | – | – | – | – | –
COC(=O)[C@H]1[C@H]2C[C@H]3c4[nH]c5ccccc5c4CCN3C[C@H]2CC[C@@H]1O [RAUWOLSCINE HYDROCHLORIDE] | 22.9 | -0.17 | -12.6 | – | – | – | – | – | –
COC(=O)[C@H]1[C@H]2C[C@@H]3c4[nH]c5cc(OC)ccc5c4CCN3C[C@H]2C[C@@H](OC(=O)c2cc(OC)c(OC)c(OC)c2)[C@@H]1OC [RESERPINE] | 87 | 0.50 | 29.4 | – | – | 24 | – | – | –
COc1ccc(/C=C/c2cc(O)cc(O)c2)cc1 [RESVERATROL 4'-METHYL ETHER] | -37.3 | – | – | -0.37 | -29 | – | – | – | –
Oc1ccc(/C=C/c2cc(O)cc(O)c2)cc1 [RESVERATROL] | 93.5 | – | -9.6 | -0.13 | – | -24 | – | – | –
CC1=C(/C=C/C(C)=C/C=C/C(C)=C/CO)C(C)(C)CCC1 [RETINOL] | 6.73 | 0.09 | 6.3 | – | – | – | – | – | –
COc1cc(O)c2c(=O)c(OC)c(-c3ccc(OC)c(OC)c3)oc2c1 [RETUSIN] | 33.2 | – | – | 0.27 | 17 | – | – | – | –
CNc1ccccc1C(=O)N1CCc2c([nH]c3ccccc23)C1=O [RHETSININE] | -31.2 | 0.51 | 29.6 | – | – | – | – | – | –
COC1=C(O)C(=O)c2c(cc3oc(C(C)=O)c(O)c3c2O)C1=O [RHODOCLADONIC ACID] | 1.58 | -0.03 | -2.1 | – | – | – | – | – | –
C[C@@H]1O[C@@H](O[C@H]2[C@H](Oc3cc(O)c4c(=O)cc(-c5ccc(O)cc5)oc4c3)O[C@H](CO)[C@@H](O)[C@@H]2O)[C@H](O)[C@H](O)[C@H]1O [RHOIFOLIN] | 54.6 | -0.26 | -20 | – | – | – | – | – | –
Cc1cc2nc3c(=O)[nH]c(=O)nc-3n(C[C@H](O)[C@H](O)[C@H](O)CO)c2cc1C [RIBOFLAVIN] | -26.6 | 0.02 | 1.1 | – | – | – | – | – | –
COc1ccc(-c2c(O)c3c(OC)c4c(cc3oc2=O)OC(C)(C)C=C4)cc1 [ROBUSTIC ACID] | 9.13 | 0.28 | 17.8 | – | – | – | – | – | –
O=C(/C=C/c1ccc(O)c(O)c1)O[C@H](Cc1ccc(O)c(O)c1)C(=O)O [ROSMARINIC ACID] | 37.3 | -0.04 | -3.1 | – | – | – | – | – | –
C=C(C)[C@H]1Cc2c(ccc3c2O[C@@H]2COc4cc(OC)c(OC)cc4[C@@H]2C3=O)O1 [ROTENONE] | 74.7 | – | – | 1.24 | 57.8 | 76 | – | – | –
COc1cc2c(cc1OC)[C@@H]1C(=O)c3ccc(OC)c(CC=C(C)C)c3O[C@@H]1CO2 [ROTENONIC ACID, METHYL ETHER] | 11.8 | – | – | 0.30 | 18.7 | – | – | – | –
